Data on four compounds can be found in patent publication US20200138855A1, “NOVEL ANTINEOPLASTIC DRUG BASED ON SPECIFICITY OF CANCER-CELL METABOLISM” (priority 2017, published 2020).

Structures are written as SMILES. Counter-ions that a name gives are not always drawn.

In experiment [1] the test system is recurrent pancreatic cancer (pancreatic body cancer) (Stage IVa). Description: Example 2: case of recurrent pancreatic cancer (pancreatic body cancer). The class given is in vivo, human. From the text:
Patient with recurrent pancreatic cancer (pancreatic body cancer) (Stage IVa)
The patient also had diabetes.

The next experiment deals with human lung cancer cells. The conditions noted are these: pHi of human lung cancer cells rises from 7.0 to 7.4; cited from earlier work.
The next experiment has as its system pancreatic cancer. The conditions noted are these: diabetic patients taking metformin versus those taking no metformin; cited from earlier work.
Experiment [2] deals with colorectal cancer cells having a mutation in KRAS gene and BRAF gene. Conditions: contact with high-concentration vitamin C; cited from earlier work.

Regarding `Nc1ccn([C@@H]2O[C@H](CO)[C@@H](O)C2(F)F)c(=O)n1` [Gemzar, gemcitabine], the “level of tumor marker (CA19-9)” value in experiment [1] (Gemzar 800 mg/m^2 every other week alone (Oct-Dec 2016), combination from mid February 2017 (NaHCO3 3 g/day, vitamin C 25 g/day once a week, metformin hydrochloride 250 mg/day)) is given as “significantly increased”. Moreover, the MRI inspection result in experiment [1] (middle of December 2016, Gemzar 800 mg/m^2 every other week alone) is “suspected to have peritoneal dissemination”. Take `COc1cccc2c1C(=O)c1c(O)c3c(c(O)c1C2=O)C[C@@](O)(C(=O)CO)C[C@@H]3O[C@H]1C[C@H](N)[C@H](O)[C@H](C)O1` [doxorubicin hydrochloride]: the “increase of resistance to the anti-cancer agent” value with human lung cancer cells is given as 2,000 times.

Turning to `CN(C)C(=N)NC(=N)N` [metformin], the “reduction of risk of development of pancreatic cancer” value in the experiment with pancreatic cancer is on record as 62%.

On to `O=C1O[C@H]([C@@H](O)CO)C(O)=C1O` [vitamin C, L-ascorbic acid], for which the “effect on the cells” value in experiment [2] is recorded as “killed”.
